Experimental data: paper PMC5053573, “Structure-Based Design of Tetrahydroisoquinoline-7-carboxamides as Selective Discoidin Domain Receptor 1 (DDR1) Inhibitors” (Journal of Medicinal Chemistry, 2016)

Tests used:
Test in all cases: biochemical
Details in all cases: read-out: %Ctrl @ 1000nM
[1] = biological target: ABL1(F317L)-phosphorylated (Homo sapiens, UniProt P00519, F317L)
[2] = biological target: ANKK1 (Homo sapiens, UniProt Q8NFD2)
[3] = biological target: BMPR1A (Homo sapiens, UniProt P36894)
[4] = biological target: T1, BRK (Homo sapiens, UniProt Q13882)
T1 construct: gene PTK6

[5] = biological target: CAMKK1 (Homo sapiens, UniProt Q8N5S9)
[6] = biological target: T2, CDC2L5 (Homo sapiens, UniProt Q14004)
T2 construct: gene CDK13

[7] = biological target: CDK4 (Homo sapiens, UniProt P11802)
[8] = biological target: CDK7 (Homo sapiens, UniProt P50613)
[9] = biological target: CLK1 (Homo sapiens, UniProt P49759)
[10] = biological target: CSNK1A1 (Homo sapiens, UniProt P48729)
[11] = biological target: EGFR(L747-E749del, A750P) (Homo sapiens, UniProt P00533, A750P/DEL747-749)
[12] = biological target: EGFR(L858R,T790M) (Homo sapiens, UniProt P00533, L858R/T790M)
[13] = biological target: EPHB4 (Homo sapiens, UniProt P54760)
[14] = biological target: T3, ERK3 (Homo sapiens, UniProt Q16659)
T3 construct: gene MAPK6

[15] = biological target: FLT4 (Homo sapiens, UniProt P35916)
[16] = biological target: GAK (Homo sapiens, UniProt O14976)
[17] = biological target: GRK2 (Homo sapiens, UniProt P25098)
[18] = biological target: HIPK1 (Homo sapiens, UniProt Q86Z02)
[19] = biological target: IGF1R (Homo sapiens, UniProt P08069)
[20] = biological target: INSR (Homo sapiens, UniProt P06213)
[21] = biological target: LRRK2 (Homo sapiens, UniProt Q5S007)
[22] = biological target: MARK1 (Homo sapiens, UniProt Q9P0L2)
[23] = biological target: T4, MLK3 (Homo sapiens, UniProt Q16584)
T4 construct: gene MAP3K11

[24] = biological target: T5, MST1 (Homo sapiens, UniProt Q13043)
T5 construct: gene STK4

[25] = biological target: MYO3B (Homo sapiens, UniProt Q8WXR4)
[26] = biological target: PIK3CA(H1047Y) (Homo sapiens, UniProt P42336, H1047Y)
[27] = biological target: PIK3CA(M1043I) (Homo sapiens, UniProt P42336, M1043I)
[28] = biological target: PKN2 (Homo sapiens, UniProt Q16513)
[29] = biological target: PRKX (Homo sapiens, UniProt P51817)
[30] = biological target: RIOK3 (Homo sapiens, UniProt O14730)
[31] = biological target: RPS6KA4(Kin.Dom.1-N-terminal) (Homo sapiens, UniProt O75676)
[32] = biological target: T6, RSK1(Kin.Dom.1-N-terminal) (Homo sapiens, UniProt Q15418)
T6 construct: gene RPS6KA1

[33] = biological target: T7, SgK110 (Homo sapiens, UniProt P0C264)
T7 construct: gene SBK3

[34] = biological target: TEC (Homo sapiens, UniProt P42680)
[35] = biological target: TESK1 (Homo sapiens, UniProt Q15569)
Sequence of TESK1 (Q15569 whole entry): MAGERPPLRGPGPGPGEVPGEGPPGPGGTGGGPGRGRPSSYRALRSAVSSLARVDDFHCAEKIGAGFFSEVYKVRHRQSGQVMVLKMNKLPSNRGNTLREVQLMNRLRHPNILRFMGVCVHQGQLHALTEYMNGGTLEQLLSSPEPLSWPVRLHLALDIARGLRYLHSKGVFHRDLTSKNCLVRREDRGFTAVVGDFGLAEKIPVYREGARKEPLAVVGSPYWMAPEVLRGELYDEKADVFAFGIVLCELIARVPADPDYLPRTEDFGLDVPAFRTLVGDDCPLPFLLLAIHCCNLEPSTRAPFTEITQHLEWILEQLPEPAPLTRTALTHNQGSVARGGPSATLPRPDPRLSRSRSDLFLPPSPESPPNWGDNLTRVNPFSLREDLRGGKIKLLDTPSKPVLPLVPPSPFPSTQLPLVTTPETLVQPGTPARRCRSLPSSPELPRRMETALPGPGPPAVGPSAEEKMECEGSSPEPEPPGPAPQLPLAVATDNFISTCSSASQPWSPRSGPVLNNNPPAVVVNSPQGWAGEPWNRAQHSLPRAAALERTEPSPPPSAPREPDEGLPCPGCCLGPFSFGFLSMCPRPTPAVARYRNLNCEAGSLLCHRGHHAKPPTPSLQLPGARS

T4 sequence (Q16584 whole entry): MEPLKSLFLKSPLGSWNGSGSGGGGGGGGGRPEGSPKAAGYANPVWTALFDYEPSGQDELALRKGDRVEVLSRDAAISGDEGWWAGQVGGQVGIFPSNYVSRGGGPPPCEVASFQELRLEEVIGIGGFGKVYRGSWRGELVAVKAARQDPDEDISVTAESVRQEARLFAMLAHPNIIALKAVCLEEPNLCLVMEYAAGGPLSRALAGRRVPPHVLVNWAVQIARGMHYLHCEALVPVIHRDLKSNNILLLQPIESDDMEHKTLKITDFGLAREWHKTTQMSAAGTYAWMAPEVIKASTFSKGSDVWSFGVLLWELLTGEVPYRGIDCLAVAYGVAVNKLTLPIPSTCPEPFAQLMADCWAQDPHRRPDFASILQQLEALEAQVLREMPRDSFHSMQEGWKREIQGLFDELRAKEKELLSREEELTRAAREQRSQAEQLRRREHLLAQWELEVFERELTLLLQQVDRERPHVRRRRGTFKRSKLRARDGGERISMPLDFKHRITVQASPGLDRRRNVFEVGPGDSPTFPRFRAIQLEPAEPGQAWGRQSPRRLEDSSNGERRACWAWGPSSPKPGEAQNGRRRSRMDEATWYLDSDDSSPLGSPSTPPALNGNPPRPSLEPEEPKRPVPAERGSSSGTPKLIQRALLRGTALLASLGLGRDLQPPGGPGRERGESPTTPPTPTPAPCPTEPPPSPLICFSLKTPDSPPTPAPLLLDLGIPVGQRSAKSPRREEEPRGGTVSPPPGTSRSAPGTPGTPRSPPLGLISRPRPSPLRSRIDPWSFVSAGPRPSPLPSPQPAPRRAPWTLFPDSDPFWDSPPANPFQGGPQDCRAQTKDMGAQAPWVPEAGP
Sequence of PIK3CA(H1047Y) (P42336 whole entry H1047Y): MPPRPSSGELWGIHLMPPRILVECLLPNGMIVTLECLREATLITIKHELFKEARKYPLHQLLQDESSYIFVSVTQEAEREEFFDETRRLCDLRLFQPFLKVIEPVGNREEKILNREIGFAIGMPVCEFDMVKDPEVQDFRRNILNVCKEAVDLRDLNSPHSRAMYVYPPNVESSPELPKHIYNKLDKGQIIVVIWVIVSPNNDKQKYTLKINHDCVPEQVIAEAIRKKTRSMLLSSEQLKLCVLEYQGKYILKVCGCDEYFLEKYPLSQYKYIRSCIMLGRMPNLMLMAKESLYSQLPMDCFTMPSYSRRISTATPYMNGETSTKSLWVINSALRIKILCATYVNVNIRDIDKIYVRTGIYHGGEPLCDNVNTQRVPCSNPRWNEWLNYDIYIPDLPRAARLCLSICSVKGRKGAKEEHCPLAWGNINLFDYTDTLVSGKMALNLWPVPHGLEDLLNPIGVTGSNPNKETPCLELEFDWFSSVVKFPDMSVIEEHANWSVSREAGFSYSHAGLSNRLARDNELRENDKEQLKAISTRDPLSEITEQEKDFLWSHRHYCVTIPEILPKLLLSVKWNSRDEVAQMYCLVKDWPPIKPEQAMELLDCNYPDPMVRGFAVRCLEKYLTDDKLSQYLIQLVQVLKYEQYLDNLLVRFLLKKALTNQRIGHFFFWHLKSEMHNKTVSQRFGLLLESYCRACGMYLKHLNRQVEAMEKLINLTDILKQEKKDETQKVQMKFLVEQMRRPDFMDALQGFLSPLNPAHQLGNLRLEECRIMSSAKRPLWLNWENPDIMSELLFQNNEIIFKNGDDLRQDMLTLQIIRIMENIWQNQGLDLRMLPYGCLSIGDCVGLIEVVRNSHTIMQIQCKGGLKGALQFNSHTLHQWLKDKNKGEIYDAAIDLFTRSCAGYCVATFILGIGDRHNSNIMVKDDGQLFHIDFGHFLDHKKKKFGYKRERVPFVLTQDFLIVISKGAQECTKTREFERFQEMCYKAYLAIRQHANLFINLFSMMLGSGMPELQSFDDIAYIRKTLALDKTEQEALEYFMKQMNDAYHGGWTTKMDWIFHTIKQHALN
Sequence of GAK (O14976 whole entry): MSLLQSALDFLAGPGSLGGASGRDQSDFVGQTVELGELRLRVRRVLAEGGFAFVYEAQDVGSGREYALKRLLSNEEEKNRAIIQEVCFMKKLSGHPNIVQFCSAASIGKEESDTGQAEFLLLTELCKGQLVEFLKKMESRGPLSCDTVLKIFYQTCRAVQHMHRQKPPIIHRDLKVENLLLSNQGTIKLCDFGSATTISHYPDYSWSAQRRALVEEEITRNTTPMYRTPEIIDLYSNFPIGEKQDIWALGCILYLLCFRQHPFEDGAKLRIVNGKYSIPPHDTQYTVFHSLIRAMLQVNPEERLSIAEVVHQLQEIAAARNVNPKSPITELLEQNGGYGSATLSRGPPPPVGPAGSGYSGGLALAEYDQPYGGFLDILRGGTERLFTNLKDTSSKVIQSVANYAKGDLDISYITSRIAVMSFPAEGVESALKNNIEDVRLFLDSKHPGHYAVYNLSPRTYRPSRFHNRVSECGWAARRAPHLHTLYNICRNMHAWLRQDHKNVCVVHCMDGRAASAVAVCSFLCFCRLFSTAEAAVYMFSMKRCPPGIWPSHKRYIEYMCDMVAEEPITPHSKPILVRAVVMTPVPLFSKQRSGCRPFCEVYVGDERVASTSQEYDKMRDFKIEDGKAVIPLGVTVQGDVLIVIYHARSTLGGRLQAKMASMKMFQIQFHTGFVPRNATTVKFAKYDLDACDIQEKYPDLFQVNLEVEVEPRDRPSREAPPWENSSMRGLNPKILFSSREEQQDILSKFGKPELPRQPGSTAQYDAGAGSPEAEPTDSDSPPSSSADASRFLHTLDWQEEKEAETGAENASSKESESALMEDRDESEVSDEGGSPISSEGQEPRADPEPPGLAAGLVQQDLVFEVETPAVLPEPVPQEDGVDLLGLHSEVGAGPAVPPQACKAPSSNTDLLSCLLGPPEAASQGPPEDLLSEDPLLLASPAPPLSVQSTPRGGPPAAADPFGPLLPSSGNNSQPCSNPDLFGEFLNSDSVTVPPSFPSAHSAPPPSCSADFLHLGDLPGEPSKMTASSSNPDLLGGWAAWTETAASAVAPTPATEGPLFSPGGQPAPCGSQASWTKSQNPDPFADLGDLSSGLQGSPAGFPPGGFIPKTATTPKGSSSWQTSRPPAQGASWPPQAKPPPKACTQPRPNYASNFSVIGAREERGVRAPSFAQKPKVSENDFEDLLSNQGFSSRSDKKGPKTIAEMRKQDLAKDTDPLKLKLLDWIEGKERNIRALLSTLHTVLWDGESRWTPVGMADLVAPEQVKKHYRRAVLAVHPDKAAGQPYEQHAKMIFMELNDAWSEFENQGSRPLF
Sequence of HIPK1 (Q86Z02 whole entry): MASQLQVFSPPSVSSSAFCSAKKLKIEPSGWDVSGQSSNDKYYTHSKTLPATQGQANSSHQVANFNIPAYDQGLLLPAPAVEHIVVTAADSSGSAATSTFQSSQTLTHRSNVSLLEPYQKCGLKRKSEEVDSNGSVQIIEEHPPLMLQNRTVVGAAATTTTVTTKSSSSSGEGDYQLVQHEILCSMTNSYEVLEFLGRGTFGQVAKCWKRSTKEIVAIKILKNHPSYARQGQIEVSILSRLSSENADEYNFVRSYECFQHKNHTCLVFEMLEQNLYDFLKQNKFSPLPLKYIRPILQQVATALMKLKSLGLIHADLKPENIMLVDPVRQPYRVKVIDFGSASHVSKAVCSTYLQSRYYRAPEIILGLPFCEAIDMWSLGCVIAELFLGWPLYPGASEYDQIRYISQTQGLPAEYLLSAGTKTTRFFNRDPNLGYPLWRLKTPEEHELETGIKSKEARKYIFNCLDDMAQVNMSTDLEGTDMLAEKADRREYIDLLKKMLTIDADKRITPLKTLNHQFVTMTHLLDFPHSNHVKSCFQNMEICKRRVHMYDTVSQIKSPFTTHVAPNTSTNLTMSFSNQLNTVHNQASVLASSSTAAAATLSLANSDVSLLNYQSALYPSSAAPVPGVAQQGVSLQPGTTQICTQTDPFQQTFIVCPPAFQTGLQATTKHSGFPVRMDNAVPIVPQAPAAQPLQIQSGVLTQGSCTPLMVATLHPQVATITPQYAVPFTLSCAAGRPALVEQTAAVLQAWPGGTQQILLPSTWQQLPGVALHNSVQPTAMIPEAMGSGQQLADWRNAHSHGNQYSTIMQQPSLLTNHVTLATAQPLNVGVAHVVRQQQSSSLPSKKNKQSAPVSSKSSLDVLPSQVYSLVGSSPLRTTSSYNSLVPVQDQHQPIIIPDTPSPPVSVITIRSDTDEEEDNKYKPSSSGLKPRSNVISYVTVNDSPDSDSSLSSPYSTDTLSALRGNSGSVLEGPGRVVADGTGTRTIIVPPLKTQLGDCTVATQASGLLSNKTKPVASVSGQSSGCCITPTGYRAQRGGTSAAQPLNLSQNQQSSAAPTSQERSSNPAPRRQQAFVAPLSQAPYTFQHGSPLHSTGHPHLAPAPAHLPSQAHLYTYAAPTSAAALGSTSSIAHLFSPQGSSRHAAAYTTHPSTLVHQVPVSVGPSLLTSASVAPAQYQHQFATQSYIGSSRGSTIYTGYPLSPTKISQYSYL
Sequence of PIK3CA(M1043I) (P42336 whole entry M1043I): as the sequence (P42336 whole entry H1047Y) above, with M1043I, Y1047H counted along it

## Cc1cn(-c2cc(NC(=O)c3ccc4c(c3)CN(c3cncnc3)C[C@@H]4C)cc(C(F)(F)F)c2)cn1 [Compound 6j]
[1]
  remaining activity at 1 µM: 74%
[2]
  remaining activity at 1 µM: 63%
[3]
  remaining activity at 1 µM: 93%
[4]
  remaining activity at 1 µM: 84%
[5]
  remaining activity at 1 µM: 64%
[6]
  remaining activity at 1 µM: 100%
[7]
  remaining activity at 1 µM: 98%
[8]
  remaining activity at 1 µM: 80%
[9]
  remaining activity at 1 µM: 92%
[10]
  remaining activity at 1 µM: 57%
[11]
  remaining activity at 1 µM: 92%
[12]
  remaining activity at 1 µM: 100%
[13]
  remaining activity at 1 µM: 76%
[14]
  remaining activity at 1 µM: 96%
[15]
  remaining activity at 1 µM: 96%
[16]
  remaining activity at 1 µM: 95%
[17]
  remaining activity at 1 µM: 96%
[18]
  remaining activity at 1 µM: 85%
[19]
  remaining activity at 1 µM: 100%
[20]
  remaining activity at 1 µM: 100%
[21]
  remaining activity at 1 µM: 100%
[22]
  remaining activity at 1 µM: 74%
[23]
  remaining activity at 1 µM: 81%
[24]
  remaining activity at 1 µM: 85%
[25]
  remaining activity at 1 µM: 85%
[26]
  remaining activity at 1 µM: 45%
[27]
  remaining activity at 1 µM: 93%
[28]
  remaining activity at 1 µM: 95%
[29]
  remaining activity at 1 µM: 96%
[30]
  remaining activity at 1 µM: 100%
[31]
  remaining activity at 1 µM: 87%
[32]
  remaining activity at 1 µM: 96%
[33]
  remaining activity at 1 µM: 98%
[34]
  remaining activity at 1 µM: 96%
[35]
  remaining activity at 1 µM: 98%
